In article PMC7864676 (Journal of pharmacological sciences, 2018):

T1: human organic anion transporter-3 (hOAT3) (Homo sapiens, UniProt Q8TCC7)
T1 sequence (Q8TCC7 1-542): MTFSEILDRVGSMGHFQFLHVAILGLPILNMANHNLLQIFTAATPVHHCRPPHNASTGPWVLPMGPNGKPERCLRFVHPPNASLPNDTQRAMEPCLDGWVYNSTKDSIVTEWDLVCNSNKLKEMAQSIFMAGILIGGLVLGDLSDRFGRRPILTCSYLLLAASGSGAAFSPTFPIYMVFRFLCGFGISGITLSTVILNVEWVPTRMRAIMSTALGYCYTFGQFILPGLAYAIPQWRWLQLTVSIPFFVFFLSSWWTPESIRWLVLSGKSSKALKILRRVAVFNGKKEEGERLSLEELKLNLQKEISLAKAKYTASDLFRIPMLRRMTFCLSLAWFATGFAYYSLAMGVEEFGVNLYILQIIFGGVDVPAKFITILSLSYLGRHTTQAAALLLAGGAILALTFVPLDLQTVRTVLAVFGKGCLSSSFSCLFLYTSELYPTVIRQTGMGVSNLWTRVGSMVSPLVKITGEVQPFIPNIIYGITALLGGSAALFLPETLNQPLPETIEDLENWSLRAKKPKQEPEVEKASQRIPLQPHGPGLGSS


Columns and labels:
[1] = biological target: T1, human organic anion transporter-3 (hOAT3); assay: cis-inhibition of [3H]-estrone sulfate uptake in hOAT3-expressing HEK293 cells; type: cell-based
[2] = substrate: C[C@]12CC[C@@H]3c4ccc(OS(=O)(=O)O)cc4CC[C@H]3[C@@H]1CCC2=O; assay: cells, lysate or membranes

| Molecule | Ki [1] [µM] | Km [2] [µM] |
| --- | --- | --- |
| C[C@@H]1C[C@H]2[C@@H]3CCC4=CC(=O)C=C[C@]4(C)[C@@]3(F)[C@@H](O)C[C@]2(C)[C@@]1(O)C(=O)CO [dexamethasone] | 47.1 |  |
| human organic anion transporter-3 (hOAT3) (Homo sapiens) (protein) MTFSEILDRVGSMGHFQFLHVAILGLPILNMANHNLLQIFTAATPVHHCRPPHNASTGPWVLPMGPNGKPERCLRFVHPPNASLPNDTQRAMEPCLDGWVYNSTKDSIVTEWDLVCNSNKLKEMAQSIFMAGILIGGLVLGDLSDRFGRRPILTCSYLLLAASGSGAAFSPTFPIYMVFRFLCGFGISGITLSTVILNVEWVPTRMRAIMSTALGYCYTFGQFILPGLAYAIPQWRWLQLTVSIPFFVFFLSSWWTPESIRWLVLSGKSSKALKILRRVAVFNGKKEEGERLSLEELKLNLQKEISLAKAKYTASDLFRIPMLRRMTFCLSLAWFATGFAYYSLAMGVEEFGVNLYILQIIFGGVDVPAKFITILSLSYLGRHTTQAAALLLAGGAILALTFVPLDLQTVRTVLAVFGKGCLSSSFSCLFLYTSELYPTVIRQTGMGVSNLWTRVGSMVSPLVKITGEVQPFIPNIIYGITALLGGSAALFLPETLNQPLPETIEDLENWSLRAKKPKQEPEVEKASQRIPLQPHGPGLGSS |  | 5.07 ± 0.49 |
